# Measured values published in patent US11690860B2, “Treatment of HCV infected patients with cirrhosis” (Atea Pharmaceuticals, Inc., priority 2018, dated 2023).
# Where “and” joins values, the source holds several entries; their conditions need not be identical. Equal values may be shown once. Entries after “also recorded” stand apart in the source; their conditions may differ. Where a name gives a salt, the structure may show the parent alone.
# Key:
# Type in all cases: in vivo, human
# [1] = tested on: GT1b HCV; test: Part B: single ascending dose study, HCV RNA reduction in non-cirrhotic GT1b HCV-infected subjects
# Protocol: (§1) HCV-infected patients were treatment-naïve with HCV RNA ≥5 log 10 IU/mL. HCV RNA was quantified using COBAS® AmpliPrep TaqMAN® v2.0 with LLQ of 15 IU/mL. Plasma drug levels were measured using LC-MS/MS. […] Cirrhosis was confirmed by prior liver biopsy or Fibroscan >12.5 kPa. […] Mean ages of enrolled subjects were 44, 39, and 56 years in the non-cirrhotic GT1b 600 mg dose cohort, non-cirrhotic GT3 cohort, and the cirrhotic cohort, respectively.
# Part A and Part B were previously conducted and described in WO 2018/144640. Part A and Part B were single ascending dose (SAD) studies.
# [2] = tested on: GT1b HCV; test: Part C: multiple ascending dose study, 7 days QD, HCV RNA change in non-cirrhotic GT1 HCV-infected patients; details: for Mean ± SD HCV RNA maximum change from baseline / Individual HCV RNA maximum change from baseline / Mean ± SD HCV RNA change from baseline to 24 h: NC GT1b; for Mean ± SD HCV RNA maximum change from baseline / Mean ± SD HCV RNA change from baseline to 24 h: N=6
# Protocol: (§2) Doses were administered as the Compound 2 salt base. The free base Compound 1 equivalent is often given in parenthesis.
# (§3) Part C was a randomized, double-blind, placebo-controlled MAD study divided into three cohorts. […] The dose escalation only proceeded following satisfactory review of the data.
# as §1
# [3] = tested on: GT3 HCV; test: Part D: 600 mg QD for 7 days, HCV RNA change in non-cirrhotic GT3 HCV-infected patients; details: for Individual HCV RNA maximum change from baseline / Mean ± SD HCV RNA maximum change from baseline / Mean ± SD HCV RNA change from baseline to 24 h: Part D; for Individual HCV RNA maximum change from baseline / Mean ± SD HCV RNA maximum change from baseline: NC GT3, 600 mg/day QD 7 days; for Mean ± SD HCV RNA maximum change from baseline / Mean ± SD HCV RNA change from baseline to 24 h: N=6; for Mean ± SD HCV RNA change from baseline to 24 h: NC GT3, 600 mg/day
# Protocol: (§4) Doses were administered as the Compound 2 salt base. The free base Compound 1 equivalent is often given in parenthesis. […]
# as §1
# [4] = tested on: GT1, GT2, or GT3 HCV; test: Part E: 600 mg QD for 7 days, HCV RNA change in Child-Pugh A cirrhotic patients; details: for Mean Reduction After 24 hours: 600 mg; for Mean ± SD HCV RNA maximum change from baseline / Mean ± SD HCV RNA change from baseline to 24 h / Individual HCV RNA maximum change from baseline: Part E; for Mean ± SD HCV RNA maximum change from baseline: Child-Pugh A cirrhotic GT1/GT2/GT3, 600 mg/day QD 7 days; for Mean ± SD HCV RNA maximum change from baseline / Mean ± SD HCV RNA change from baseline to 24 h: N=6; for Mean ± SD HCV RNA change from baseline to 24 h: Child-Pugh A cirrhotic GT1/GT2/GT3, 600 mg/day
# Protocol: as §4, §1
# [5] = Plasma pharmacokinetics of Compound 1 and metabolite 1-7 (LC-MS/MS) in Parts C, D and E; details: based on plasma exposures
# Protocol: as §2, §3, §1
# Plasma levels of metabolite 1-7 were measured using LC-MS/MS.
# [6] = Safety/tolerability in the study of Compound 2
# Protocol: as §2, §3
# However, this observation is consistent with previously published data showing rapid increase in lipids with HCV clearance upon initiation of DAA therapy in HCV-infected subjects.
# [7] = tested on: HCV GT1, GT2, GT3; test: All 600 mg QD cohorts (Parts C/D/E) taken together, plasma HCV RNA
# Protocol: as §2, §3, §1
# [8] = Part C, 600 mg/day QD 7 days, listed as Compd 2
# [9] = GT1, Child-Pugh A, 600 mg QD 7 days, n=3
# [10] = GT3, Child-Pugh A, 600 mg QD 7 days, n=1
smiles,measurement,setting,value
"CNc1nc(N)nc2c1ncn2[C@@H]1O[C@H](CO[P@@](=O)(N[C@@H](C)C(=O)OC(C)C)Oc2ccccc2)[C@@H](O)[C@@]1(C)F [Compound 2, hemi-sulfate salt of isopropyl((S)-(((2R,3R,4R,5R)-5-(2-amino-6-(methylamino)-9H-purin-9-yl)-4-fluoro-3-hydroxy-4-methyltetrahydrofuran-2-yl)methoxy)(phenoxy)phosphoryl)-L-alaninate]",Individual Max Reduction of HCV RNA,[1]; 600 mg Compound 2 (equivalent of 550 mg Compound 1),2.1 log10 IU/ml and 2.3 log10 IU/ml and 2.6 log10 IU/ml
same,Mean Max Reduction of HCV RNA,"[1]; 600 mg Compound 2 (equivalent of 550 mg Compound 1), n=3",2.3 log10 IU/ml
same,Individual Max Reduction of HCV RNA,[1]; Compound 2 equivalent of 92 mg Compound 1,0.6 log10 IU/ml and 0.8 log10 IU/ml and 0.9 log10 IU/ml
same,Mean Max Reduction of HCV RNA,"[1]; Compound 2 equivalent of 92 mg Compound 1, n=3",0.8 log10 IU/ml
same,Individual Max Reduction of HCV RNA,[1]; Compound 2 equivalent of 275 mg Compound 1,1.1 log10 IU/ml and 1.8 log10 IU/ml and 2.2 log10 IU/ml
same,Mean Max Reduction of HCV RNA,"[1]; Compound 2 equivalent of 275 mg Compound 1, n=3",1.7 log10 IU/ml
same,Individual Max Reduction of HCV RNA,[1]; Compound 2 equivalent of 368 mg Compound 1,1.8 log10 IU/ml and 2.2 log10 IU/ml and 2.6 log10 IU/ml
same,Mean Max Reduction of HCV RNA,"[1]; Compound 2 equivalent of 368 mg Compound 1, n=3",2.2 log10 IU/ml
same,"HCV RNA < LOQ (15 IU/mL), subjects","[2]; GT1 non-cirrhotic, 600 mg QD 7 days, n=6",3/6
same,subjects achieving HCV RNA <LOQ,"[2]; Part C, 600 mg QD 7 days",50%
same,Mean ± SD HCV RNA maximum change from baseline,"[2]; Part C, 150 mg/day QD 7 days",2.6 ± 1.1 log10 IU/mL
same,Individual HCV RNA maximum change from baseline,"[2]; Part C, 150 mg/day QD 7 days, listed as Compd 2",1.7 log10 IU/mL and 1.8 log10 IU/mL (2×) and 2.7 log10 IU/mL and 3.0 log10 IU/mL and 4.5 log10 IU/mL
same,Mean ± SD HCV RNA change from baseline to 24 h,"[2]; Part C, 150 mg/day",1.2 ± 0.3 log10 IU/mL
same,Mean ± SD HCV RNA maximum change from baseline,"[2]; Part C, 300 mg/day QD 7 days",4.0 ± 0.4 log10 IU/mL
same,Individual HCV RNA maximum change from baseline,"[2]; Part C, 300 mg/day QD 7 days, listed as Compd 2",3.4 log10 IU/mL and 3.7 log10 IU/mL and 3.9 log10 IU/mL and 4.2 log10 IU/mL (2×) and 4.5 log10 IU/mL
same,Mean ± SD HCV RNA change from baseline to 24 h,"[2]; Part C, 300 mg/day",1.9 ± 0.2 log10 IU/mL
same,Individual HCV RNA maximum change from baseline,"[2]; Part C, 600 mg/day QD 7 days",4.3 log10 IU/mL and 5.2 log10 IU/mL and 5.3 log10 IU/mL and 3.5 log10 IU/mL and 4.0 log10 IU/mL and 4.1 log10 IU/mL
same,Mean ± SD HCV RNA maximum change from baseline,[2]; [8],4.4 ± 0.7 log10 IU/mL
same,Individual HCV RNA maximum change from baseline,[2]; [8],3.5 log10 IU/mL and 4.0 log10 IU/mL and 4.1 log10 IU/mL and 4.3 log10 IU/mL and 5.2 log10 IU/mL and 5.3 log10 IU/mL
same,Mean ± SD HCV RNA change from baseline to 24 h,"[2]; Part C, 600 mg/day",2.1 log10 IU/mL
same,Mean ± SD HCV RNA change from baseline to 24 h,"[2]; Part C, 600 mg/day, listed as Compd 2",2.1 ± 0.2 log10 IU/mL
same,"HCV RNA < LOQ (15 IU/mL), subjects","[3]; GT3 non-cirrhotic, 600 mg QD 7 days, n=6",one subject achieved HCV RNA <LOQ within four days and 1/6
same,Individual HCV RNA maximum change from baseline,[3],4.2 log10 IU/mL and 4.4 log10 IU/mL and 4.5 log10 IU/mL (2×) and 5.0 log10 IU/mL
same,Mean ± SD HCV RNA maximum change from baseline,[3],4.5 log10 IU/mL
same,Mean ± SD HCV RNA maximum change from baseline,[3]; listed as Compd 2,4.5 ± 0.3 log10 IU/mL
same,Individual HCV RNA maximum change from baseline,[3]; listed as Compd 2,4.2 log10 IU/mL and 4.4 log10 IU/mL (2×) and 4.5 log10 IU/mL (2×) and 5.0 log10 IU/mL
same,Mean ± SD HCV RNA change from baseline to 24 h,[3],2.4 log10 IU/mL
same,Mean ± SD HCV RNA change from baseline to 24 h,[3]; listed as Compd 2,2.3 ± 0.3 log10 IU/mL
same,antiviral activity / HCV RNA change in cirrhotic compared with non-cirrhotic subjects,"[4]; 600 mg/day QD 7 days, Part E vs Parts C and D",similar
same,"HCV RNA < LOQ (15 IU/mL), subjects",[4]; [9],1/3
same,Mean Max Reduction,[4]; [9],4.2 log10 IU/mL
same,Mean Reduction After 24 hours,"[4]; GT1, Child-Pugh A, n=3",2.4 log10 IU/mL
same,activity against HCV genotypes in cirrhotic patients,"[4]; GT1, GT2, and GT3",active
same,"HCV RNA < LOQ (15 IU/mL), subjects",[4]; [10],0/1
same,Mean (Individual) Max Reduction,[4]; [10],4.8 log10 IU/mL
same,Mean Reduction After 24 hours,"[4]; GT3, Child-Pugh A, n=1",2.2 log10 IU/mL
same,Mean ± SD HCV RNA maximum change from baseline,[4],4.6 log10 IU/mL and 4.5 log10 IU/mL
same,Mean ± SD HCV RNA maximum change from baseline,[4]; listed as Compd 2,4.6 ± 0.5 log10 IU/mL
same,Mean ± SD HCV RNA change from baseline to 24 h,[4],2.4 log10 IU/mL
same,Mean ± SD HCV RNA change from baseline to 24 h,[4]; listed as Compd 2,2.4 ± 0.2 log10 IU/mL
same,Individual HCV RNA maximum change from baseline,"[4]; cirrhotic GT1b, 600 mg/day QD 7 days",4.0 log10 IU/mL and 4.1 log10 IU/mL and 4.5 log10 IU/mL
same,Individual HCV RNA maximum change from baseline,"[4]; cirrhotic GT1b, 600 mg/day QD 7 days, listed as Compd 2","GT1b: 4.0, log10 IU/mL and 4.1 log10 IU/mL and 4.5 log10 IU/mL"
same,Individual HCV RNA maximum change from baseline,"[4]; cirrhotic GT2, 600 mg/day QD 7 days",GT2: 4.8 log10 IU/mL
same,Individual HCV RNA maximum change from baseline,"[4]; cirrhotic GT3, 600 mg/day QD 7 days, listed as Compd 2",5.1 log10 IU/mL and 5.2 log10 IU/mL
same,impact of mild hepatic impairment on PK,[5],did not significantly impact
same,"serious adverse events, dose-limiting toxicities, premature discontinuations","[6]; cirrhotic and non-cirrhotic HCV-infected subjects, up to 600 mg","No serious adverse events (AEs), dose-limiting toxicities, or premature discontinuations were reported; also recorded: No serious adverse events, dose-limiting toxicities or premature discontinuations were observed"
same,lipid abnormalities (cholesterol and triglyceride increase),[6]; compared to placebo,higher incidence of mostly low-grade lipid abnormalities
same,ALT/AST values,[6]; during the treatment period,decreased over time
same,"AEs, laboratory parameters, ECGs and vital signs",[6]; in vivo,"no other clinically relevant, dose-related patterns"
same,liver injury,[6]; in vivo,no findings suggestive of liver injury
same,tolerability,[6]; up to 600 mg (salt form) for seven days,well tolerated
same,reductions in plasma HCV RNA,"[7]; 600 mg QD, steady state, regardless of genotype or cirrhosis status",−4.5 log10 IU/mL
same,plasma HCV RNA decrease within the first 24 h of dosing,[7]; after the first 600 mg dose,up to 2.4 log10 IU/mL
same,subjects achieving HCV RNA below the lower limit of quantitation,"[7]; cohorts receiving 600 mg QD, seven days of therapy",~30%
